In assay [1] the target is T1, GST tagged LXRbeta LBD (ligand binding domain) (Homo sapiens, UniProt P55055).
T1 construct: purchased Invitrogen pv4658.pps
T1 sequence (P55055 222-460 limits assumed): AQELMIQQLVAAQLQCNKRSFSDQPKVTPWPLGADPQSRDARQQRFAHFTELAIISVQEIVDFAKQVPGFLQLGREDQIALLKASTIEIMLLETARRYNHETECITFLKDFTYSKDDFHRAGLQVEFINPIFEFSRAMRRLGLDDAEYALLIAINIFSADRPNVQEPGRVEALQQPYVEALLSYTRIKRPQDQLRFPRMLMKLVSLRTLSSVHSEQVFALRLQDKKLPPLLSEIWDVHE
As to the kind of experiment: LanthaScreen TR-FRET Liver X Receptor Coactivator Assay, LXR beta-LBD (co-activator recruitment; IP and % Emax relative to T0901317). The assay is classed as biochemical. Conditions: for EC50: Inflection Point of co-activator recruitment, LXR beta-LBD, TR-FRET; for Emax: efficacy at max dose in relation to reference T0901317, LXR beta-LBD, read-out: LXR beta actiivty at max dose (%). In outline: (§1)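 Readout is time-resolved FRET between a terbium anti-GST antibody bound to the tagged LBD and a fluorescein-labelled coactivator peptide recruited on ligand binding. Samples are incubated at room temperature before reading, and efficacy is expressed against T0901317.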
A general note: In TR-FRET formats the signal depends on donor and acceptor labels being close together.

The target in assay [2] is T2, GST tagged LXRalpha LBD (ligand binding domain) (Homo sapiens, UniProt Q13133).
T2 construct: purchased Invitrogen pv4655
T2 sequence (Q13133 209-447 limits assumed): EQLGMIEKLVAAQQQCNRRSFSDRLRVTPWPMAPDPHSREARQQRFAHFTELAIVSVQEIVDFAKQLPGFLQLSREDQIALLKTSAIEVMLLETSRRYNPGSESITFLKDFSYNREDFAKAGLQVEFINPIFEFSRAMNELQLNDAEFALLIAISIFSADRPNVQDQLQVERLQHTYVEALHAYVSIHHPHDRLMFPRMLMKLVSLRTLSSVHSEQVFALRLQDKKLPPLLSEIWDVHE
As to the kind of experiment: LanthaScreen TR-FRET Liver X Receptor Coactivator Assay, LXR alpha-LBD (co-activator recruitment; IP and % Emax relative to T0901317). The assay is classed as biochemical. Conditions: for LXR alpha IP (nM) / EC50: Inflection Point of co-activator recruitment, LXR alpha-LBD, TR-FRET; for Emax: efficacy at max dose in relation to reference T0901317, LXR alpha-LBD, read-out: LXR alpha actiivty at max dose (%). In outline:
as §1

From US10961215B2, “N-aryl and N-heteroaryl piperidine derivatives as liver X receptor beta agonists, compositions, and their use” (Merck Sharp & Dohme Corp., priority 2016, dated 2021) come the findings set out here.

A word on the EC50: it is the concentration that produces a half-maximal response. A lower EC50 goes with greater potency. For `CN(C)C(=O)c1ccc(N2CCC(CCCN(C)C(=O)[C@@]3(c4ccccc4Cl)CCCO3)CC2)nc1Cl` [Example 1-64, (S)-2-chloro-6-(4-(3-(2-(2-chlorophenyl)-N-methyltetrahydrofuran-2-carboxamido)propyl)piperidin-1-yl)-N,N-dimethylnicotinamide], in assay [1], a half-maximal effect (EC50) was put at 0.285 µM and the Emax was 26%. Moreover, in assay [2], the “LXR alpha IP (nM)” value was “No IP” and the Emax was found to be 0%.
Turning to `CN(C)C(=O)c1ccc(N2CCC(CCCN(C)C(=O)[C@]3(c4ccccc4)CC(F)(F)CO3)CC2)nc1Cl` [Example 1-66, (R)-2-chloro-6-(4-(3-(4,4-difluoro-N-methyl-2-phenyltetrahydrofuran-2-carboxamido)propyl)piperidin-1-yl)-N,N-dimethylnicotinamide], in assay [1], it took 0.138 µM to reach a half-maximal effect (EC50) and the Emax stood at 82%. Also, in assay [2], the “LXR alpha IP (nM)” value is reported as “No IP” and the Emax is 7%.
As to `COc1cccc([C@@](O)(C(=O)N(C)CCCC2CCN(c3ccc(C(=O)NC(C)C)c(Cl)n3)CC2)C(F)(F)F)c1` [Example 2-1, (R)-2-chloro-N-isopropyl-6-(4-(3-(3,3,3-trifluoro-2-hydroxy-2-(3-methoxyphenyl)-N-methylpropanamido)propyl)piperidin-1-yl)nicotinamide], in assay [1], the EC50 was 0.686 µM and the Emax amounted to 51%. In addition, in assay [2], the “LXR alpha IP (nM)” value is listed as “No IP” and the Emax stood at 18%.
For the molecule `COc1cccc([C@@](O)(C(=O)N(C)CCCC2CCN(c3ccc(C(=O)NC4CC4)c(Cl)n3)CC2)C(F)(F)F)c1` [Example 2-2, (R)-2-chloro-N-cyclopropyl-6-(4-(3-(3,3,3-trifluoro-2-hydroxy-2-(3-methoxyphenyl)-N-methylpropanamido)propyl)piperidin-1-yl)nicotinamide], in assay [1], the EC50 worked out at 0.688 µM and the Emax came out at 44%. Further, in assay [2], the “LXR alpha IP (nM)” value was “No IP” and the Emax amounted to 7%.
As to `COc1cccc([C@@](O)(C(=O)N(C)CCCC2CCN(c3ccc(C(=O)N(C)C4CC4)c(Cl)n3)CC2)C(F)(F)F)c1` [Example 2-3, (R)-2-chloro-N-cyclopropyl-N-methyl-6-(4-(3-(3,3,3-trifluoro-2-hydroxy-2-(3-methoxyphenyl)-N-methylpropanamido)propyl)piperidin-1-yl)nicotinamide], in assay [1], the midpoint of the response, the EC50, lay at 0.107 µM and the Emax is 42%. Also, in assay [2], the “LXR alpha IP (nM)” value was “No IP” and the Emax was 0%.
Turning to `COc1cccc([C@@](O)(C(=O)N(C)CCCC2CCN(c3ccc(C(=O)N(C)C(C)C)c(Cl)n3)CC2)C(F)(F)F)c1` [Example 2-4, (R)-2-chloro-N-isopropyl-N-methyl-6-(4-(3-(3,3,3-trifluoro-2-hydroxy-2-(3-methoxyphenyl)-N-methylpropanamido)propyl)piperidin-1-yl)nicotinamide], in assay [1], the EC50 was 0.024 µM and the Emax is 61%. In assay [2], the “LXR alpha IP (nM)” value is on record as “No IP” and the Emax amounted to 0%.
`COc1cccc([C@@](O)(C(=O)N(C)CCCC2CCN(c3ccc(C(=O)N(C)CCO)c(Cl)n3)CC2)C(F)(F)F)c1` [Example 2-5, (R)-2-chloro-N-(2-hydroxyethyl)-N-methyl-6-(4-(3-(3,3,3-trifluoro-2-hydroxy-2-(3-methoxyphenyl)-N-methylpropanamido)propyl)piperidin-1-yl)nicotinamide]: the 50% effective concentration (EC50) in assay [1] was 0.028 µM; in assay [2], 0.705 µM. Also, the Emax in assay [1] came to 63%; in assay [2], 23%.
As to `COc1cccc([C@@](O)(C(=O)N(C)CCCC2CCN(c3ccc(C(=O)N4CCCC4)c(Cl)n3)CC2)C(F)(F)F)c1` [Example 2-6, (R)-N-(3-(1-(6-chloro-5-(pyrrolidine-1-carbonyl)pyridin-2-yl)piperidin-4-yl)propyl)-3,3,3-trifluoro-2-hydroxy-2-(3-methoxyphenyl)-N-methylpropanamide], in assay [1], the EC50 stood at 0.126 µM and the Emax is 50%. In assay [2], the “LXR alpha IP (nM)” value was “No IP” and the Emax is 0%.
As to `COc1cccc([C@@](O)(C(=O)N(C)CCCC2CCN(c3ccc(C(=O)N4CC[C@@H](CO)C4)c(Cl)n3)CC2)C(F)(F)F)c1` [Example 2-7, (R)-N-(3-(1-(6-chloro-5-((R)-3-(hydroxymethyl)pyrrolidine-1-carbonyl)pyridin-2-yl)piperidin-4-yl)propyl)-3,3,3-trifluoro-2-hydroxy-2-(3-methoxyphenyl)-N-methylpropanamide], in assay [1], the midpoint of the response, the EC50, lay at 0.42 µM and the Emax amounted to 43%. In addition, in assay [2], the “LXR alpha IP (nM)” value is “No IP” and the Emax stood at 4%.
Regarding `COc1cccc([C@@](O)(C(=O)N(C)CCCC2CCN(c3ccc(C(=O)N4CC[C@H](CO)C4)c(Cl)n3)CC2)C(F)(F)F)c1` [Example 2-8, (R)-N-(3-(1-(6-chloro-5-((S)-3-(hydroxymethyl)pyrrolidine-1-carbonyl)pyridin-2-yl)piperidin-4-yl)propyl)-3,3,3-trifluoro-2-hydroxy-2-(3-methoxyphenyl)-N-methylpropanamide], in assay [1], the midpoint of the response, the EC50, lay at 0.011 µM and the Emax turned out to be 47%. Besides, in assay [2], the response was half-maximal at 0.69 µM (EC50) and the Emax was determined as 40%.
The corresponding values for `COc1cccc([C@@](O)(C(=O)N(C)CCCC2CCN(c3ccc(C(=O)N4CC(NC(=O)OC(C)(C)C)C4)c(Cl)n3)CC2)C(F)(F)F)c1` [Example 2-9, (R)-tert-butyl 1-(2-chloro-6-(4-(3-(3,3,3-trifluoro-2-hydroxy-2-(3-methoxyphenyl)-N-methylpropanamido)propyl)piperidin-1-yl)nicotinoyl) azetidin-3-ylcarbamate] are 0.009 µM, 65%, 0.164 µM and 45%.
For `COc1cccc([C@@](O)(C(=O)N(C)CCCC2CCN(c3ccc(C(=O)N4C(C)CCC4C)c(Cl)n3)CC2)C(F)(F)F)c1` (stereo partly drawn) [Example 2-10, (2R)-N-(3-(1-(6-chloro-5-(2,5-dimethylpyrrolidine-1-carbonyl)pyridin-2-yl)piperidin-4-yl)propyl)-3,3,3-trifluoro-2-hydroxy-2-(3-methoxyphenyl)-N-methylpropanamide], in assay [1], the response was half-maximal at 0.134 µM (EC50) and the Emax came out at 43%. For the same molecule, in assay [2], the “LXR alpha IP (nM)” value is listed as “No IP” and the Emax turned out to be 0%.
For `CNC(=O)c1ccc(N2CCC(CCCN(C)C(=O)[C@](O)(c3cccc(OC)c3)C(F)(F)F)CC2)nc1Cl` [Example 2-11, (R)-2-chloro-N-methyl-6-(4-(3-(3,3,3-trifluoro-2-hydroxy-2-(3-methoxyphenyl)-N-methylpropanamido)propyl)piperidin-1-yl)nicotinamide] the same measures were 0.524 µM, 60%, “No IP” and 13%.
Regarding `COc1cccc([C@@](O)(C(=O)N(C)CCCC2CCN(c3ccc(C(=O)N(C)Cc4noc(C5CC5)n4)c(Cl)n3)CC2)C(F)(F)F)c1` [Example 2-12, (R)-2-chloro-N-((5-cyclopropyl-1,2,4-oxadiazol-3-yl)methyl)-N-methyl-6-(4-(3-(3,3,3-trifluoro-2-hydroxy-2-(3-methoxyphenyl)-N-methylpropanamido)propyl)piperidin-1-yl)nicotinamide], in assay [1], the EC50 worked out at 0.011 µM and the Emax is 62%. For the same molecule, in assay [2], it took 0.095 µM to reach a half-maximal effect (EC50) and the Emax was determined as 40%.
Consider `COc1cccc([C@@](O)(C(=O)N(C)CCCC2CCN(c3ccc(C(=O)N4CC(N)C4)c(Cl)n3)CC2)C(F)(F)F)c1` [Example 2-13, (R)-N-(3-(1-(5-(3-aminoazetidine-1-carbonyl)-6-chloropyridin-2-yl)piperidin-4-yl)propyl)-3,3,3-trifluoro-2-hydroxy-2-(3-methoxyphenyl)-N-methylpropanamide], for which, in assay [1], the EC50 is 0.195 µM and the Emax worked out at 60%. Moreover, in assay [2], the “LXR alpha IP (nM)” value is “No IP” and the Emax came to 11%.
For `COc1cccc([C@@](O)(C(=O)N(C)CCCC2CCN(c3ccc(C(=O)N(C)CCn4cncn4)c(Cl)n3)CC2)C(F)(F)F)c1` [Example 2-14] the same measures were 0.083 µM, 67%, “No IP” and 14%.
On to `COc1cccc([C@@](O)(C(=O)N(C)CCCC2CCN(c3ccc(C(=O)N4CCC4)c(Cl)n3)CC2)C(F)(F)F)c1` [Example 2-15, (R)-N-(3-(1-(5-(azetidine-1-carbonyl)-6-chloropyridin-2-yl)piperidin-4-yl)propyl)-3,3,3-trifluoro-2-hydroxy-2-(3-methoxyphenyl)-N-methylpropanamide], for which, in assay [1], the EC50 was 0.272 µM and the Emax is 49%. In addition, in assay [2], the “LXR alpha IP (nM)” value is “No IP” and the Emax is 0%.
